In patent US20090275529A1, “METHOD FOR IMPROVING CARDIOVASCULAR RISK PROFILE OF COX INHIBITORS” (priority 2008, published 2009):
Where “and” joins values, the source holds several entries; their conditions need not be identical. Equal values may be shown once. Entries after “also recorded” stand apart in the source; their conditions may differ.

Tests used:
[1] = test system: cholesterol 27-OHase mRNA in THP-1 cells; assay: 27-OHase mRNA by real-time PCR (QRT-PCR) in THP-1 monocytes/macrophages; conditions: for effect on 27-OHase message: THP-1 monocytes/macrophages; for increase in 27-OHase message: THP-1 cells; for 27-OHase mRNA, % of control: THP-1 monocytes, MTX 5 μM, 18 hr, untreated = 100%, n=3
Method: THP-1 cells: When THP-1 cells had reached 10^6 cells/ml, media was aspirated and cells were rinsed twice with Dulbecco's Phosphate Buffered Saline (DPBS) without calcium and magnesium. The monocytes were then incubated for 24-48 hours in six well plates, (37° C., 5% CO2) under the following conditions: a) RPMI control; b) RPMI containing 5 mM MTX; c) RPMI containing NS-398 (50 μM); d) RPMI containing NS-398 (50 μM) and MTX (increasing doses of 0.1 μM, 0.5 μM and 5 μM); e) RPMI containing IFN-γ (500 U/ml); f) RPMI containing IFN-γ (500 U/ml) and 5 μM MTX.
TUP-1 macrophages were exposed to the following conditions: a) RPMI control; b) RPMI containing ZM-241385 (10 μM); c) RPMI containing MTX (5 μM); d) RPMI containing IFN-γ (500 U/ml); e) RPMI containing IFN-γ (500 U/ml) and 5 μM MTX; f) RPMI containing ZM-241385 (10 μM) and MTX (5 μM); g) RPMI containing IFN-γ (500 U/ml), ZM-241385 (10 μM) and MTX (5 μM); h) RPMI containing NS-398 (50 μM), ZM-241385 (10 μM) and MTX (5 μM).
Other experimental conditions of TUP-1 and PBMC included the following parameters and conditions: when THP-1 monocytes had reached 10^6 cells/ml, media was aspirated and cells were rinsed twice with Dulbecco's Phosphate Buffered Saline (DPBS) without calcium and magnesium.
RNA isolation and quantitation: RNA was isolated using 1 ml Trizol reagent per 10^6 cells and dissolved in nuclease-free water. The quantity of total RNA from each condition was measured by absorption at 260 and 280 wavelengths using quartz cuvettes by ultraviolet spectrophotometry (Hitachi U2010 spectrophotometer).
RT-PCR analysis of 27-OHase: 27-OHase and ABCA1 mRNA were quantitated by real-time PCR. cDNA was copied from 5 μg of total RNA using M-MLV reverse transcriptase primed with oligo dT. Equal amounts of cDNA were taken from each RT reaction mixture for PCR amplification using cholesterol 27-OHase-specific primers or ABCA1 specific primers as well as glyceraldehyde-3-phosphate dehydrogenase (GAPDH) control primers. The cholesterol 27-OHase-specific primers span a 311 base-pair sequence encompassing nucleotides 491-802 of the human cholesterol 27-OHase cDNA (24). ABCA1 primers yield a 234 BP amplified fragment. Real-time PCR analysis was performed using the SYBR Green PCR Reagents Kit (Applied Biosystems) with a Stratagene MX3005P QPCR System.
PCR was performed using techniques as follows. Each PCR reaction contained 2.5 μl of the 10 × fluorescent green buffer, 3 μl of 25 mM MgCl2, 2 μl dNTP mix (2500 μM dCTP, 2500 μM dGTP, 2500 μM dATP, and 5000 μM dUTP), 0.15 μl polymerase (5 U/μl; AmpliTaq Gold; Applied Biosystems), 0.25 μl uracil-N-glycosylase (1 U/μlUNG; AmpErase; Applied Biosystems), 0.5 μl of the forward and reverse primers (10 μM concentration), 4 μl cDNA, and water to a final volume of 25 μl. The thermal cycling parameters were as follows: 5 minutes at 95° C. to activate the polymerase (AmpliTaq Gold; Applied Biosystems), followed by 45 cycles of 30 seconds at 95° C. and 45 seconds at 58° C. then 45 seconds at 72° C. Each reaction was done in triplicate.
The amounts of PCR products were estimated, using software provided by the manufacturer (Stratagene). After completion of PCR cycles, the reactions were heat denatured over a 35° C. temperature gradient from 60° C. to 95° C. To correct for differences in cDNA load among samples, the target PCRs were normalized to a reference PCR involving the endogenous housekeeping genes glyceraldehyde-3-phosphate dehydrogenase (GAPDH) and β-actin. Nontemplate controls were included for each primer pair to check for significant levels of any contaminants. Fluorescence emission spectra were monitored and analyzed.

[2] = test system: ABCA1 mRNA in THP-1 cells; assay: ABCA1 mRNA by real-time PCR in THP-1 cells; assay type: cell-based, human; conditions: for effect on ABCA1 message: THP-1 monocytes/macrophages
[3] = test system: cholesterol 27-OHase protein in THP-1 cells; assay: 27-OHase protein by Western immunoblot in THP-1 monocytes; assay type: cell-based, human; conditions: NS-398 50 μM
Method: Western Blots: Total cell lysates were prepared for Western immunoblotting using RIPA lysis buffer (98% PBS, 1% Igepal CA-630, 0.5% sodium deoxycholate, 0.1% sodium dodecyl sulfate [SDS]). 100 μl of RIPA lysis buffer and 10 μl of protease inhibitor cocktail (Sigma) were added to the cell pellet from each condition and incubated on ice for 35 minutes with vortexing every 5 min. Supernatants were collected after centrifuging at 10,000 g at 4° C. for 10 minutes using an Eppendorf 5415C centrifuge. The quantity of protein in each supernatant was measured by absorption at 560 nm using a Hitachi U2010 spectrophotometer.
Total cell lysate was used for Western blots. Protein samples ([…]) were boiled for 5 minutes, loaded onto a 10% polyacrylamide gel, electrophoresed for 1.5 hr at 100V then transferred to a nitrocellulose membrane in a semi-dry transblot apparatus for 1 hour at 100V. […] The five washes in TTBS were repeated, then the immunoreactive protein was detected using ECL western blotting detection reagent (Amersham Biosciences, Cat No RPN2106) and film development in SRX-101A (Konica Minolta).
As a control, on the same transferred membrane, beta-actin was detected using mouse anti-beta-actin (diluted in 1:1000, from abCam, product Code: ab6276) and ECL sheep anti-mouse-IgG Horseradish peroxidase-linked species-specific whole antibody (diluted in 1:2000, from Amersham Biosciences, product Code NA931) and all other similar steps as above.
Total cell lysate was isolated for Western immunoblotting using RIPA lysis buffer (98% PBS, 1% Igepal CA-630, 0.5% sodium deoxycholate, 0.1% SDS). […] The quantity of protein in each supernatant was measured by absorption at 560 nm using a Hitachi U2010 spectrophotometer.
Cultured TUP-1 monocytic cells were untreated or exposed to NS-398 (50 μM, 18 hr) then untreated or exposed to increasing doses of MTX for 24 hr. Total cell protein was isolated and 27-OHase detected with specific rabbit polyclonal anti-human 27-OHase antibody. […]

[4] = test system: 27-OHase mRNA in Balb/C murine macrophages; assay: 27-OHase mRNA in Balb/C murine macrophages; assay type: cell-based; conditions: 10^−5M, 3 hours, 37° C., n=3 per group
Excerpt: A number of different highly receptor-specific agonists and antagonists of adenosine receptors have been developed that either mimic or block the effects of adenosine. […] Based on the upregulation of 27-OHase in murine cells upon exposure to CGS-21680, the same effect was established in human monocytoid cells. In THP-1 cells, ABCA1 mRNA increased in concert with 27-OHase.

[5] = rats, IV dose 0.3 mg/kg; cited from earlier work
[6] = test system: THP-1 macrophages; assay: Foam cell formation in acetylated LDL-loaded THP-1 macrophages (oil red O); assay type: cell-based, human
Method: THP-1 human monocytes (1×10^6 cells/ml) in 12 well plates were treated with phorbol dibutyrate, 300 nM (Sigma) for 48 hr at 37° C. to facilitate differentiation into macrophages. The differentiated macrophages were washed three times with PBS, then incubated alone or in the presence of 10 μM NS-398 (37° C., 5% CO2, 18 hours). Cells were cholesterol-loaded with acetylated LDL (50 μg/ml) and further incubated in RPMI (37° C., 5% CO2) for 48 hours. Studies were performed in triplicate.
Immediately following incubation, media was aspirated and cells were fixed in the same 12 well plates used for incubation, with 4% paraformaldehyde in water, for 2-4 minutes. Cells were stained with 0.2% Oil-Red-O in methanol for 1-3 min. Cells were observed via light microscope (Axiovert 25-Zeiss) with 100× magnification and then photographed using a Kodak DC 290 Zoom Digital Camera. The number of foam cells formed in each condition were calculated manually and presented as percentage foam cell formation.
(§1) Media was aspirated and cells were rinsed 3 times with Dulbecco's Phosphate Buffered Saline (PBS) without Ca++ and Mg++. […] THP-1 macrophages were cholesterol-loaded with 50 μg/ml acetylated LDL and incubated an additional 48 h prior to oil red O staining.
Following incubation, media was aspirated and cells were fixed with 4% paraformaldehyde in water, for 2-4 min. Cells were stained with 0.4% trypan blue for 1-3 min, washed in PBS, and then stained with 0.2% oil-Red-O in methanol for 1-3 min. Observation and photography of cells was performed respectively via light microscope (NIKON Eclipse TE300) with 40× magnification and SONY Progressive 3CCD color video camera. The number of foam cells formed in each condition were calculated manually and presented as percentage foam cell formation.

[7] = test system: ABCA1 protein in THP-1 cells; assay: ABCA1 protein by Western blot in THP-1 cells; assay type: cell-based, human; conditions: 50 μM
Method: ABCA1 Detection: For ABCA1 detection, macrophage cell lysates were electrophoresed for 1.5 hr at 100V (10% polyacrylamide gel), then transferred to a nitrocellulose membrane. The membrane was blocked for 4 hours at 4° C. in blocking solution then incubated overnight at 4° C. in a 1:200 dilution of rabbit anti-ABCA1antibody (Santa Cruz Biotechnology). The following day, the membrane was washed 5 times in TTBS for 5 mins per wash then incubated at room temperature in a 1:5000 dilution of ECL donkey anti-rabbit IgG Horseradish peroxidase-linked species-specific whole antibody. Development proceeded as described above for the 27-OHase antibody.
as §1
Western Blots: Total cell lysate protein samples (10 μg/lane) were boiled for 5 min, loaded onto a 7.5% polyacrylamide gel, electrophoresed for 1.5 hr at 100V then transferred to a nitrocellulose membrane in a semi-dry transblot apparatus for 1 hr at 100V. For ABCA1 detection, the primary antibody was a rabbit anti-human ABCA1 antibody (1:2000 dilution, Santa Cruz Biotechnology). […]

[8] = test system: 27-OHase in peripheral blood monocytes; assay: 27-OHase in healthy monocytes isolated from peripheral blood (PBMC); assay type: cell-based, human; conditions: MTX 5 μM, 18 h
Method: PBMC (peripheral blood mononuclear cell) isolation: Blood from healthy donors was collected in EDTA treated tubes, pooled and kept at 4° C. The pooled blood was adjusted to a density of 1.120 g/ml with the addition of OptiPrep Density Gradient Media (Sigma) according to the manufacturer's instructions. The blood was then overlaid with a 1.074 g/ml density solution composed of complete RPMI containing 10% FBS and OptiPrep media. A layer of complete RPMI containing 10% FBS was then overlaid on top to prevent monocytes from sticking to the plastic tube. The blood was centrifuged at 750 g for 30 minutes at 4° C. After centrifugation, the monocyte interphase was collected from between the 1.074 g/ml and RPMI layer. The collected cells were diluted with 2 volumes of complete RPMI and harvested by centrifugation. The pellet was re-suspended in complete RPMI. The monocytes were counted by hemocytometer and plated at a density of 2×10^6 cells/well in a 6-well plate.
PBMC: PBMC were incubated for 18 h in RPMI with 10% FBS with and without the addition of MTX at a concentration of 5 μM. Cells were collected and RNA isolated.

[9] = vs NS-398 alone, NS-398 50 μM, CGS-21680 10 μM, 18 hrs
[10] = acetylated LDL-treated THP-1 macrophages, MTX series, control 39.3±5.0%, n=3
[11] = THP-1 macrophages, acetylated LDL

COC(=O)N1CCC(CC#Cc2nc(N)c3ncn([C@@H]4O[C@H](C(=O)NC5CC5)[C@@H](O)[C@H]4O)c3n2)CC1 [ATL313]
effect on 27-OHase message [1]: increases 27-OHase message
effect on ABCA1 message [2]: increases 27-OHase as shown in FIG. 3b and ABCA1 mRNA and protein

CCNC(=O)[C@H]1O[C@@H](n2cnc3c(N)nc(NCCc4ccc(CCC(=O)O)cc4)nc32)[C@H](O)[C@@H]1O [CGS-21680, 2-(4-(2-carboxyethyl)phenethylamino)-5′-N-ethylcarboxamidoadenosine]
increase in 27-OHase message [1]: ≤ 1.8 fold
increase in 27-OHase mRNA on addition of CGS-21680 to NS-398-treated THP-1 cells [1, 9]: 184%
increase in ABCA1 mRNA on addition of CGS-21680 to NS-398-treated THP-1 cells [2, 9]: 141%
effect on 27-OHase protein [3]: this decrease is reversed by the addition of the adenosine A2A agonist CGS-21680
increase in 27-OHase mRNA expression [4]: 47±6.2%
terminal half-life [5]: 19 ± 4 min

Cc1ccc(-c2cc(C(F)(F)F)nn2-c2ccc(S(N)(=O)=O)cc2)cc1 [Celecoxib, celecoxib]
foam cells ([6]; 50 μM, acetylated LDL loading, control 39.1%±5.4): 95.0%±0.7
decrease in ABCA1 protein expression vs. control [7]: 25.6%±1.3

Nc1nc(OCCc2ccc(Cl)cc2)nc2c1ncn2[C@@H]1O[C@H](CO)[C@@H](O)[C@H]1O [MRE-0094]
increase in 27-OHase message [1]: 2 fold
increase in ABCA1 mRNA expression ([2]; THP-1 cells): 1.8 fold

CN(Cc1cnc2nc(N)nc(N)c2n1)c1ccc(C(=O)N[C@@H](CCC(=O)O)C(=O)O)cc1 [MTX, methotrexate]
effect on 27-OHase message [1]: completely blocked NS-398-induced downregulation of 27-OHase message
27-OHase mRNA, % of control ([1]; NS-398 50 μM, CGS-21680 10 μM): 113.9±6.4%
effect on ABCA1 message [2]: effective in blocking COX-2 inhibitor-mediated downregulation of ABCA1 message
effect on 27-OHase in peripheral blood monocytes [8]: increases 27-OHase
effect on 27-OHase protein [3]: corrected with increasing concentrations of MTX

CS(=O)(=O)Nc1ccc([N+](=O)[O-])cc1OC1CCCCC1 [NS-398]
foam cell transformation ([6]; THP-1 macrophages, NS-398 (10 μM, 18 hours), acetylated LDL, control 20.1±3.4%): 42.7±6.6%
foam cells [6, 10]: 72.7±4.9%
effect on 27-OHase message [1]: dramatically reduced cholesterol 27-OHase message
27-OHase mRNA, % of control ([1]; NS-398 50 μM, CGS-21680 10 μM): 71.1±4.3% and 58.9±2.3% and 62.4±2.2%
ABCA1 mRNA, % of control ([2]; THP-1 cells, NS-398 50 μM, CGS-21680 10 μM, 18 hrs, untreated = 100%, n=3): 71.1±3.9% and 60.49±4.42%
effect on 27-OHase protein [3]: 27-OHase protein expression decreased

Nc1nc(NCCc2ccc(O)cc2)nc2nc(-c3ccco3)nn12 [ZM-241385]
effect on foam cell formation [6, 11]: prevents MTX from decreasing NS-398-induced foam cell formation
foam cells after preincubation with A2A antagonist prior to MTX treatment ([6]; acetylated LDL-treated THP-1 macrophages, ZM-241385 then MTX): 62.1±1.5%
reversal by A2A antagonist of agonist-induced rise in 27-OHase (and ABCA1) message ([1]; THP-1, ZM-241385 with ATL313 or MRE-0094): this is reversed by ZM-241385; also recorded: reversed the effect of MRE-0094 on both these messages

IFN-γ: recombinant human IFN-γ, atherosclerosis-promoting cytokine (R&D Systems)
effect on foam cell formation [6, 11]: formed foam cells more rapidly and in greater proportion than untreated control cells
foam cells [6, 10]: 71.0±5.0%
effect on 27-OHase message [1]: decreasing 27-OHase and ABCA1 message and protein expression
